Results as given in patent US6472348B1, “Pyridone derivatives and herbicides” (Kumiai Chemical Industry Co., Ltd., priority 1996, dated 2002).
Blank lines part the entries; values can stand above or below the compound they belong to.

What was measured:
slender amaranth (Am) [1] = test: Test Example 11: crop plant selectivity by upland field foliage treatment (corn), herbicidal effects; format: in vivo; parameters: scale not given here; conditions: upland field foliage treatment (corn test), dose 1.6 g ai/10a, 14th day after treatment
In short: (§1)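 Corn and the weed species were sown together in sand-filled pots and grown in a greenhouse for 2 weeks before foliar treatment. Herbicidal effect was scored on day 14 after treatment against a graded standard scale, with corn phytotoxicity scored alongside.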

[2] = test system: common lambsquarters (Ch); test: as above; format: in vivo; parameters: scale not given here; conditions: upland field foliage treatment (corn test), dose 1.6 g ai/10a, 14th day after treatment
In short: as §1

pale smartweed (Po) [3] = test: as above; format: in vivo; parameters: scale not given here; conditions: upland field foliage treatment (corn test), dose 1.6 g ai/10a, 14th day after treatment
In short: as §1

China jute (Ab) [4] = test: as above; format: in vivo; parameters: scale not given here; conditions: upland field foliage treatment (corn test), dose 1.6 g ai/10a, 14th day after treatment
In short: as §1

corn (Ze) [5] = test: Test Example 7: crop plant selectivity by upland field soil treatment (corn), phytotoxicity; format: in vivo; parameters: scale not given here; conditions: dose 6.3 g ai/10a, 21st day after application
In short: (§2)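 Sand-filled pot; corn plus weeds sown, soil-covered. Post-application greenhouse culture. Herbicidal effect/phytotoxicity rated day 21 per standard scale.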

wheat (Tr) = test: Test Example 9: crop plant selectivity by upland field foliage treatment (wheat), phytotoxicity; conditions: dose 1.6 g ai/10a, 14th day after treatment;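 note: grade of crop injury; 5 = at least 90%; 4 = 70 to 90%; 3 = 50 to 70%; 2 = 30 to 50%; 1 = 10 to 30%; 0 = under 10%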
In short: (§3)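 Wheat and weeds sown in sand-filled pots, grown 2 weeks in a greenhouse, then foliage-treated. Herbicidal effect and crop phytotoxicity were scored 14 days after treatment against a rating scale.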

bulrush (Sc) = test: Test Example 1: herbicidal effects by paddy field soil treatment; format: in vivo; conditions: 100 g of the active ingredient per 10 ares, 21st day after the application, index 0-5 of Table 47;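 note: grade of growth control; 5 = at least 90%; 4 = 70 to 90%; 3 = 50 to 70%; 2 = 30 to 50%; 1 = 10 to 30%; 0 = under 10%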
In short: (§4)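 Greenhouse pot test in flooded paddy soil, dosed at 100 g a.i. per 10 ares; effect scored on day 21.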

monochoria (Mo) = test: as above; format: in vivo; conditions: 100 g of the active ingredient per 10 ares, 21st day after the application, index 0-5 of Table 47;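 note: grade of growth control; 5 = at least 90%; 4 = 70 to 90%; 3 = 50 to 70%; 2 = 30 to 50%; 1 = 10 to 30%; 0 = under 10%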
In short: as §4

barnyardgrass (Ec) [6] = test: as above; format: in vivo; conditions: 100 g of the active ingredient per 10 ares, 21st day after the application, index 0-5 of Table 47
In short: as §4

slender amaranth (Am) [7] = test: Test Example 3: herbicidal effects by upland field foliage treatment; format: in vivo; parameters: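 grade of growth control; 5 = at least 90%; 4 = 70 to 90%; 3 = 50 to 70%; 2 = 30 to 50%; 1 = 10 to 30%; 0 = under 10%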
In short: (§5)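 Foliage-applied treatment on weeds pre-grown for 2 weeks in a greenhouse. Pots held sand (surface area 120 cm^2); seeds were sown and covered with soil. Evaluation: graded herbicidal effect 14 days post-application.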

rice flatsedge (Ci) [8] = test: as above; format: in vivo; parameters: scale not given here
In short: as §5

[9] = test system: common lambsquarters (Ch); test: as above; format: in vivo; parameters: scale not given here
In short: as §5

pale smartweed (Po) [10] = test: as above; format: in vivo; parameters: scale not given here
In short: as §5

Diaitaria ciliaris (Di) = test: as above; format: in vivo; parameters: scale not given here
In short: as §5

barnyardgrass (Ec) [11] = test: as above; format: in vivo; parameters: scale not given here
In short: as §5

slender amaranth (Am) [12] = test: Test Example 2: herbicidal effects by upland field soil treatment; format: in vivo; conditions: 100 g of the active ingredient per 10 ares;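 note: grade of growth control; 5 = at least 90%; 4 = 70 to 90%; 3 = 50 to 70%; 2 = 30 to 50%; 1 = 10 to 30%; 0 = under 10%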
Description: (§6) (Test on Herbicidal Effects by Upland Field Soil Treatment)

rice flatsedge (Ci) [13] = test: as above; format: in vivo; conditions: 100 g of the active ingredient per 10 ares
Description: as §6

Digitaria ciliaris (Di) = test: as above; format: in vivo; conditions: 100 g of the active ingredient per 10 ares
Description: as §6

[14] = test system: common lambsquarters (Ch); test: as above; format: in vivo; conditions: 100 g of the active ingredient per 10 ares
Description: as §6

pale smartweed (Po) [15] = test: as above; format: in vivo; conditions: 100 g of the active ingredient per 10 ares
Description: as §6

barnyardgrass (Ec) [16] = test: as above; format: in vivo; conditions: 100 g of the active ingredient per 10 ares
Description: as §6

corn (Ze) [17] = test: Test Example 11: crop plant selectivity by upland field foliage treatment (corn), phytotoxicity; conditions: upland field foliage treatment, dose 1.6 g ai/10a, 14th day after treatment
In short: as §1

cotton (Go) = test: Test Example 4: crop plant selectivity by upland field soil treatment (cotton), phytotoxicity; format: in vivo; parameters: scale not given here; conditions: dose 6.3 g ai/10 a, evaluated 21st day after application
In short: (§7)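 Seeds of cotton and several weed species were sown in sand-filled pots and covered with soil before soil treatment with the test compound. Plants were grown in a greenhouse, and herbicidal effect and crop phytotoxicity were scored against set standards 21 days after application.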

green foxtail (Se) [18] = test: Test Example 4: crop plant selectivity by upland field soil treatment (cotton), herbicidal effects; format: in vivo; parameters: scale not given here; conditions: dose 6.3 g ai/10 a, evaluated 21st day after application
In short: as §7

slender amaranth (Am) [19] = test: as above; format: in vivo; parameters: scale not given here; conditions: dose 6.3 g ai/10 a, evaluated 21st day after application
In short: as §7

[20] = test system: common lambsquarters (Ch); test: as above; format: in vivo; parameters: scale not given here; conditions: dose 6.3 g ai/10 a, evaluated 21st day after application
In short: as §7

pale smartweed (Po) [21] = test: as above; format: in vivo; parameters: scale not given here; conditions: dose 6.3 g ai/10 a, evaluated 21st day after application
In short: as §7

China jute (Ab) [22] = test: as above; format: in vivo; parameters: scale not given here; conditions: dose 6.3 g ai/10 a, evaluated 21st day after application
In short: as §7

green foxtail (Se) [23] = test: Test Example 7: crop plant selectivity by upland field soil treatment (corn), herbicidal effects; format: in vivo; parameters: scale not given here; conditions: dose 6.3 g ai/10a, 21st day after application
In short: as §2

slender amaranth (Am) [24] = test: as above; format: in vivo; parameters: scale not given here; conditions: dose 6.3 g ai/10a, 21st day after application
In short: as §2

[25] = test system: common lambsquarters (Ch); test: as above; format: in vivo; parameters: scale not given here; conditions: dose 6.3 g ai/10a, 21st day after application
In short: as §2

pale smartweed (Po) [26] = test: as above; format: in vivo; parameters: scale not given here; conditions: dose 6.3 g ai/10a, 21st day after application
In short: as §2

China jute (Ab) [27] = test: as above; format: in vivo; parameters: scale not given here; conditions: dose 6.3 g ai/10a, 21st day after application
In short: as §2

slender amaranth (Am) [28] = test: Test Example 9: crop plant selectivity by upland field foliage treatment (wheat), herbicidal effects; format: in vivo; parameters: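 grade of growth control; 5 = at least 90%; 4 = 70 to 90%; 3 = 50 to 70%; 2 = 30 to 50%; 1 = 10 to 30%; 0 = under 10%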; conditions: dose 1.6 g ai/10a, 14th day after treatment
In short: as §3

[29] = test system: common lambsquarters (Ch); test: as above; format: in vivo; parameters: scale not given here; conditions: dose 1.6 g ai/10a, 14th day after treatment
In short: as §3

pale smartweed (Po) [30] = test: as above; format: in vivo; parameters: scale not given here; conditions: dose 1.6 g ai/10a, 14th day after treatment
In short: as §3

China jute (Ab) [31] = test: as above; format: in vivo; parameters: scale not given here; conditions: dose 1.6 g ai/10a, 14th day after treatment
In short: as §3

[32] = 100 g of the active ingredient per 10 ares, evaluated on the 14th day after treatment
[33] = 21st day after the application, index 0-5 of Table 47
[34] = 100 g active ingredient per 10 ares, evaluated 14th day after treatment
[35] = evaluated on the 21st day after application

- melting point: 207 to 208 °C
Compound: Cc1cc(-c2cc(O)c(Cl)cc2F)c(=O)n(C)c1C(F)(F)F [Compound No. 1-79, 3-(4-chloro-2-fluoro-5-hydroxyphenyl)-1,5-dimethyl-6-trifluoromethyl-2(1H)-pyridone]

- melting point: 91 to 92 °C
Compound: CC(=O)Sc1cc(-c2ccc(C(F)(F)F)n(C)c2=O)c(F)cc1Cl [Compound No. 1-85, 3-(5-acetylthio-4-chloro-2-fluorophenyl)-1-methyl-6-trifluoromethyl-2(1H)-pyridone]

- melting point: 170 to 172 °C
Compound: CCOC(=O)c1c(C(F)(F)F)n(C)cc(-c2cc(OC(C)C)c(Cl)cc2F)c1=O [Compound No. 6-42, 5-(4-chloro-2-fluoro-5-isopropoxyphenyl)-3-ethoxycarbonyl-1-methyl-2-trifluoromethyl-4(1H)-pyridone]

Compound: Cn1c(C(F)(F)F)ccc(-c2cc(Oc3ncccn3)c(Cl)cc2Cl)c1=O [1-41]
- Herbicidal effects Am (slender amaranth (Am) [1]): 5
- Herbicidal effects Ch [2]: 5
- Herbicidal effects Po (pale smartweed (Po) [3]): 5
- Herbicidal effects Ab (China jute (Ab) [4]): 5
- Phytotoxicity Ze (corn (Ze) [5]): 1
- Phytotoxicity Tr (wheat (Tr)): 2
- Herbicidal effects Sc (bulrush (Sc)): 5
- Herbicidal effects Mo (monochoria (Mo)): 5
- Herbicidal effects Ec (barnyardgrass (Ec) [6]): 5
- Herbicidal effects Am (slender amaranth (Am) [7]; [32]): 5
- Herbicidal effects Ci (rice flatsedge (Ci) [8]; [32]): 5
- Herbicidal effects Ch [9, 32]: 5
- Herbicidal effects Po (pale smartweed (Po) [10]; [32]): 5
- Herbicidal effects Di (Diaitaria ciliaris (Di); [32]): 5
- Herbicidal effects Ec (barnyardgrass (Ec) [11]; [32]): 5
- Herbicidal effects Am (slender amaranth (Am) [12]; [33]): 5
- Herbicidal effects Ci (rice flatsedge (Ci) [13]; [33]): 5
- Herbicidal effects Di (Digitaria ciliaris (Di); [33]): 5
- Herbicidal effects Ch [14, 33]: 5
- Herbicidal effects Po (pale smartweed (Po) [15]; [33]): 5
- Herbicidal effects Ec (barnyardgrass (Ec) [16]; [33]): 5
- Phytotoxicity Ze (corn (Ze) [17]): 2
- Phytotoxicity Go (cotton (Go)): 1
- Herbicidal effects Se (green foxtail (Se) [18]): 5
- Herbicidal effects Am (slender amaranth (Am) [19]): 5
- Herbicidal effects Ch [20]: 5
- Herbicidal effects Po (pale smartweed (Po) [21]): 5
- Herbicidal effects Ab (China jute (Ab) [22]): 5
- Herbicidal effects Se (green foxtail (Se) [23]): 5
- Herbicidal effects Am (slender amaranth (Am) [24]): 5
- Herbicidal effects Ch [25]: 5
- Herbicidal effects Po (pale smartweed (Po) [26]): 5
- Herbicidal effects Ab (China jute (Ab) [27]): 5
- Herbicidal effects Am (slender amaranth (Am) [28]): 5
- Herbicidal effects Ch [29]: 5
- Herbicidal effects Po (pale smartweed (Po) [30]): 5
- Herbicidal effects Ab (China jute (Ab) [31]): 5

- melting point: 263 to 265 °C
Compound: Cn1c(C(F)(F)F)ccc(-c2cc3[nH]c(=O)oc3cc2Cl)c1=O [Compound No. 3-20, 3-(6-chlorobenzoxazolin-2-on-5-yl)-1-methyl-6-trifluoromethyl-2(1H)-pyridone]

- melting point: 169 to 171 °C
Compound: CSCc1cc2c(-c3ccc(C(F)(F)F)n(C)c3=O)c(F)cc(Cl)c2o1 [Compound No. 4-44, 3-(7-chloro-5-fluoro-2-methylthiomethylbenzofuran-4-yl)-1-methyl-6-trifluoromethyl-2-(1H)-pyridone]

- melting point: 225 to 227 °C
Compound: Cn1c(C(F)(F)F)ccc(-c2c(Cl)cc(Cl)c3oc(C(Br)(Br)Br)cc23)c1=O [4-40, 3-(5,7-dichloro-2-tribromomethylbenzofuran-4-yl)-1-methyl-6-trifluoromethyl-2-(1H)-pyridone]

Compound: CC(C)C(=O)c1cc(-c2ccc(C(F)(F)F)n(C)c2=O)c(F)cc1Cl [Compound 1-196]
- Herbicidal effects Am (slender amaranth (Am) [1]): 5
- Herbicidal effects Ch [2]: 5
- Herbicidal effects Po (pale smartweed (Po) [3]): 5
- Herbicidal effects Ab (China jute (Ab) [4]): 5
- Phytotoxicity Ze (corn (Ze) [5]): 1
- Phytotoxicity Tr (wheat (Tr)): 2
- Herbicidal effects Sc (bulrush (Sc)): 5
- Herbicidal effects Mo (monochoria (Mo)): 5
- Herbicidal effects Ec (barnyardgrass (Ec) [6]): 5
- Herbicidal effects Am (slender amaranth (Am) [7]; [34]): 5
- Herbicidal effects Ci (rice flatsedge (Ci) [8]; [34]): 5
- Herbicidal effects Ch [9, 34]: 5
- Herbicidal effects Po (pale smartweed (Po) [10]; [34]): 5
- Herbicidal effects Di (Diaitaria ciliaris (Di); [34]): 5
- Herbicidal effects Ec (barnyardgrass (Ec) [11]; [34]): 5
- Herbicidal effects Am (slender amaranth (Am) [12]; [35]): 5
- Herbicidal effects Ci (rice flatsedge (Ci) [13]; [35]): 5
- Herbicidal effects Di (Digitaria ciliaris (Di); [35]): 5
- Herbicidal effects Ch [14, 35]: 5
- Herbicidal effects Po (pale smartweed (Po) [15]; [35]): 5
- Herbicidal effects Ec (barnyardgrass (Ec) [16]; [35]): 5
- Phytotoxicity Ze (corn (Ze) [17]): 2
- Phytotoxicity Go (cotton (Go)): 0
- Herbicidal effects Se (green foxtail (Se) [18]): 5
- Herbicidal effects Am (slender amaranth (Am) [19]): 5
- Herbicidal effects Ch [20]: 5
- Herbicidal effects Po (pale smartweed (Po) [21]): 5
- Herbicidal effects Ab (China jute (Ab) [22]): 5
- Herbicidal effects Se (green foxtail (Se) [23]): 5
- Herbicidal effects Am (slender amaranth (Am) [24]): 5
- Herbicidal effects Ch [25]: 5
- Herbicidal effects Po (pale smartweed (Po) [26]): 5
- Herbicidal effects Ab (China jute (Ab) [27]): 5
- Herbicidal effects Am (slender amaranth (Am) [28]): 5
- Herbicidal effects Ch [29]: 5
- Herbicidal effects Po (pale smartweed (Po) [30]): 5
- Herbicidal effects Ab (China jute (Ab) [31]): 5

- melting point: 48 to 50 °C
Compound: Cn1c(C(F)(F)F)cc(Cl)c(-c2ccc(Cl)cc2)c1=O [Compound No. 11-1, 3-(4-chlorophenyl)-4-chloro-1-methyl-6-trifluoromethyl-2(1H)-pyridone]

- melting point: 118 to 119 °C
Compound: CCOC(=O)c1c(C(F)(F)F)[nH]cc(-c2cc(OC(C)C)c(Cl)cc2F)c1=O [Compound No. 6-57, 5-(4-chloro-2-fluoro-5-isopropoxyphenyl)-3-ethoxycarbonyl-2-trifluoromethyl-4(1H)-pyridone]
